The values that follow come from ChEMBL document CHEMBL1759836, “Microwave assisted one-pot synthesis of highly potent novel isoniazid analogues” (Bioorg Med Chem Lett, 2011).

Data set [1] relates to Mycobacterium tuberculosis. Description: Antimicrobial activity against Mycobacterium tuberculosis H37Rv by agar dilution method. Format: functional. For orientation: In agar dilution, organisms are placed on agar that contains the substance at set levels.
A short description of data set [2]: Cytotoxicity against african green monkey Vero cells after 72 hrs by MTT assay. In kind it is cell-based. Conditions: chlorocebus sabaeus.
Data set [3] has as its system Mycobacterium tuberculosis. Description: Antimicrobial activity against multidrug-resisntat Mycobacterium tuberculosis by agar dilution method. In kind it is functional.
The nature of data set [4]: Selectivity index, ratio of CC50 for african green monkey Vero cells to MIC for Mycobacterium tuberculosis H37Rv. In kind it is functional.

Converted amounts (≈) assume the structure as drawn. Where only a bound is given, the exact number is not on record here.

For the compound `Cc1cccc(C2C3=C(CC(C)(C)CC3=O)N(NC(=O)c3ccncc3)C3=C2C(=O)CC(C)(C)C3)c1`, in data set [1], the MIC (in general, the lowest concentration that inhibits growth of the organism) was determined as 6.44 µM (≈ 3.11 µg/mL).
`CC1(C)CC(=O)C2=C(C1)N(NC(=O)c1ccncc1)C1=C(C(=O)CC(C)(C)C1)C2c1ccc(Cl)cc1`: the half-maximal cytotoxic concentration (CC50) (commonly the concentration at which the toxic effect on the cells reaches its halfway point) at 72 h in data set [2] is over 124 µM. Also, the minimum inhibitory concentration (MIC) was determined as 0.79 µM (≈ 0.398 µg/mL) in data set [1] and 1.54 µM (≈ 0.776 µg/mL) in data set [3].
Consider `COc1cc(C2C3=C(CC(C)(C)CC3=O)N(NC(=O)c3ccncc3)C3=C2C(=O)CC(C)(C)C3)ccc1O`, for which, in data set [1], the minimal inhibitory concentration (MIC) stood at 3.02 µM (≈ 1.56 µg/mL).
The same measure, in the same setting: in the case of `COc1ccccc1C1C2=C(CC(C)(C)CC2=O)N(NC(=O)c2ccncc2)C2=C1C(=O)CC(C)(C)C2` it was 12.5 µM (≈ 6.25 µg/mL).
With `CC1(C)CC(=O)C2=C(C1)N(NC(=O)c1ccncc1)C1=C(C(=O)CC(C)(C)C1)C2c1ccc(C(F)(F)F)cc1`, the cytotoxic concentration (CC50) at 72 h in data set [2] is over 116 µM. Further, the MIC in data set [1] came to 0.36 µM (≈ 0.194 µg/mL); in data set [3], 0.74 µM (≈ 0.398 µg/mL).
In the same order, the values of `CC1(C)CC(=O)C2=C(C1)N(NC(=O)c1ccncc1)C1=C(C(=O)CC(C)(C)C1)C2c1cccc(OCc2ccccc2)c1` are over 109 µM, 0.17 µM (≈ 0.0979 µg/mL) and 1.35 µM (≈ 0.777 µg/mL).
Take `CC1(C)CC(=O)C2=C(C1)N(NC(=O)c1ccncc1)C1=C(C(=O)CC(C)(C)C1)C2c1ccc(O)cc1`: in data set [1], the MIC is 12.9 µM (≈ 6.25 µg/mL).
Take `CC1(C)CC(=O)C2=C(C1)N(NC(=O)c1ccncc1)C1=C(C(=O)CC(C)(C)C1)C2c1ccccc1F`: the CC50 at 72 h in data set [2] was over 128 µM. In addition, the results for the minimum inhibitory concentration (MIC) in data set [1] and in data set [3] were 0.41 µM (≈ 0.2 µg/mL) and 1.59 µM (≈ 0.775 µg/mL), respectively.
Compound `CN(C)c1ccc(C2C3=C(CC(C)(C)CC3=O)N(NC(=O)c3ccncc3)C3=C2C(=O)CC(C)(C)C3)cc1` yielded an MIC in data set [1] of 6.1 µM (≈ 3.13 µg/mL).
Regarding `CC1(C)CC(=O)C2=C(C1)N(NC(=O)c1ccncc1)C1=C(C(=O)CC(C)(C)C1)C2c1cccc(F)c1`, the CC50 at 72 h in data set [2] was over 128 µM. Besides, the minimum inhibitory concentration (MIC) came out at 0.41 µM (≈ 0.2 µg/mL) in data set [1] and 0.82 µM (≈ 0.4 µg/mL) in data set [3].
The compound `CC1(C)CC(=O)C2=C(C1)N(NC(=O)c1ccncc1)C1=C(C(=O)CC(C)(C)C1)C2c1ccccc1OCc1ccccc1` showed a CC50 at 72 h in data set [2] of over 109 µM. The figures for the MIC in data set [1] and in data set [3] were under 0.17 µM and 0.69 µM (≈ 0.397 µg/mL), respectively.
For the compound `CC1(C)CC(=O)C2=C(C1)N(NC(=O)c1ccncc1)C1=C(C(=O)CC(C)(C)C1)C2c1ccccc1Br`, in data set [2], the CC50 at 72 h is over 114 µM. Moreover, the MIC is 0.18 µM (≈ 0.0987 µg/mL) in data set [1] and 2.84 µM (≈ 1.56 µg/mL) in data set [3].
Consider `CC1(C)CC(=O)C2=C(C1)N(NC(=O)c1ccncc1)C1=C(C(=O)CC(C)(C)C1)C2c1cccc(Br)c1`, for which, in data set [2], the half-maximal cytotoxic concentration (CC50) at 72 h was under 114 µM. Also, the MIC was 0.73 µM (≈ 0.4 µg/mL) in data set [1] and 2.84 µM (≈ 1.56 µg/mL) in data set [3].
For `COc1ccc(C2C3=C(CC(C)(C)CC3=O)N(NC(=O)c3ccncc3)C3=C2C(=O)CC(C)(C)C3)cc1`, it took 12.5 µM (≈ 6.25 µg/mL) to inhibit growth in data set [1] (MIC).
As to `Cc1ccc(C2C3=C(CC(C)(C)CC3=O)N(NC(=O)c3ccncc3)C3=C2C(=O)CC(C)(C)C3)cc1`, in data set [1], inhibition of growth (MIC) required 6.44 µM (≈ 3.11 µg/mL).
`CC1(C)CC(=O)C2=C(C1)N(NC(=O)c1ccncc1)C1=C(C(=O)CC(C)(C)C1)C2c1cccc(C(F)(F)F)c1` came in with a CC50 at 72 h in data set [2] of over 116 µM. Moreover, the minimal inhibitory concentration (MIC) in data set [1] was 0.18 µM (≈ 0.0968 µg/mL); in data set [3], 1.45 µM (≈ 0.779 µg/mL). Further, in data set [4], the “Selectivity Index” value was over 645.
With `CC1(C)CC(=O)C2=C(C1)N(NC(=O)c1ccncc1)C1=C(C(=O)CC(C)(C)C1)C2c1ccccc1[N+](=O)[O-]`, in data set [2], the CC50 at 72 h was under 121 µM. For the same compound, the MIC in data set [1] turned out to be 0.19 µM (≈ 0.0978 µg/mL); in data set [3], 1.51 µM (≈ 0.777 µg/mL).
In the case of `CC1(C)CC(=O)C2=C(C1)N(NC(=O)c1ccncc1)C1=C(C(=O)CC(C)(C)C1)C2c1cccc([N+](=O)[O-])c1`, the CC50 at 72 h in data set [2] is under 121 µM. Further, the MIC in data set [1] was determined as 0.77 µM (≈ 0.396 µg/mL); in data set [3], 3.03 µM (≈ 1.56 µg/mL).
In data set [1], `CC1(C)CC(=O)C2=C(C1)N(NC(=O)c1ccncc1)C1=C(C(=O)CC(C)(C)C1)C2c1ccccc1` yielded an MIC of 6.66 µM (≈ 3.13 µg/mL).
As to `COc1ccc(C2C3=C(CC(C)(C)CC3=O)N(NC(=O)c3ccncc3)C3=C2C(=O)CC(C)(C)C3)c(OC)c1OC`, in data set [1], the MIC was determined as 11.2 µM (≈ 6.25 µg/mL).
Compound `CC1(C)CC(=O)C2=C(C1)N(NC(=O)c1ccncc1)C1=C(C(=O)CC(C)(C)C1)C2c1ccccc1C(F)(F)F` came in with a cytotoxic concentration (CC50) at 72 h in data set [2] of over 116 µM. The MIC in data set [1] was 0.36 µM (≈ 0.194 µg/mL); in data set [3], 1.45 µM (≈ 0.779 µg/mL).
On the same counts, the results for `NNC(=O)c1ccncc1` [ISONIAZID] are over 456 µM, 0.73 µM (≈ 0.1 µg/mL) and 45.6 µM (≈ 6.25 µg/mL).
The compound `CC1(C)CC(=O)C2=C(C1)N(NC(=O)c1ccncc1)C1=C(C(=O)CC(C)(C)C1)C2c1cccc(O)c1` had a minimum inhibitory concentration (MIC) in data set [1] of over 12.9 µM.
Take `CC(C)c1ccc(C2C3=C(CC(C)(C)CC3=O)N(NC(=O)c3ccncc3)C3=C2C(=O)CC(C)(C)C3)cc1`: the minimal inhibitory concentration (MIC) in data set [1] is 1.52 µM (≈ 0.778 µg/mL).
The same measure, in the same setting: next, `CC1(C)CC(=O)C2=C(C1)N(NC(=O)c1ccncc1)C1=C(C(=O)CC(C)(C)C1)C2c1ccccc1O`: over 12.9 µM.
`CC1(C)CC(=O)C2=C(C1)N(NC(=O)c1ccncc1)C1=C(C(=O)CC(C)(C)C1)C2c1ccc(F)cc1` came in with a CC50 at 72 h in data set [2] of over 128 µM. Moreover, the MIC in data set [1] and in data set [3] was 0.2 µM (≈ 0.0975 µg/mL) throughout.
On to `CC1(C)CC(=O)C2=C(C1)N(NC(=O)c1ccncc1)C1=C(C(=O)CC(C)(C)C1)C2c1ccc([N+](=O)[O-])cc1`, for which the CC50 at 72 h in data set [2] was under 121 µM. The MIC came out at 0.77 µM (≈ 0.396 µg/mL) in data set [1] and 3.03 µM (≈ 1.56 µg/mL) in data set [3].
In the same order, the values of `CC1(C)CC(=O)C2=C(C1)N(NC(=O)c1ccncc1)C1=C(C(=O)CC(C)(C)C1)C2c1ccc(OCc2ccccc2)cc1` are over 109 µM, 0.17 µM (≈ 0.0979 µg/mL) and 0.69 µM (≈ 0.397 µg/mL).
In data set [1], `Cc1ccccc1C1C2=C(CC(C)(C)CC2=O)N(NC(=O)c2ccncc2)C2=C1C(=O)CC(C)(C)C2` displayed an MIC of 3.22 µM (≈ 1.56 µg/mL).
As to `CC1(C)CC(=O)C2=C(C1)N(NC(=O)c1ccncc1)C1=C(C(=O)CC(C)(C)C1)C2c1ccc(Br)cc1`, the CC50 at 72 h in data set [2] was under 114 µM. Further, the MIC in data set [1] was 0.73 µM (≈ 0.4 µg/mL); in data set [3], 2.84 µM (≈ 1.56 µg/mL).
